Patent publication US20120022143A1, “RNA Interference Mediated Inhibition of the Thymic Stromal Lymphopoietin (TSLP) Gene Expression Using Short Interfering Nucliec Acid (siNA)” (Merck Sharp & Dohme Corp, priority 2009, published 2012)
[invAb] = inverted abasic unit; d = 2'-deoxy (DNA); m = 2'-O-methyl; r = 2'-OH (RNA); f = 2'-fluoro

Assays:
TSLP mRNA = assay: Initial screening: TSLP mRNA knock-down by RT-PCR (Taqman) after RNAiMax transfection of NHLF cells; format: cell-based; conditions: 10 nM siNA, human NHLF cells, 24 hrs post-transfection, relative to non-targeting control, normalized to GAPDH; mean ± s.d. from 2 experiments
Method: (§1) All cells were obtained from ATCC (Manassas, Va.) unless otherwise indicated. Cells were grown and transfected under standard conditions, which are detailed below for each cell line.
NHLF (human; Lonza cat# CC-2512): Cells were cultured at 37° C. in the presence of 5% CO2 and grown Fibroblast Basal Medium (Lonza cat# CC-3β2) supplemented growth factors (provided with the kit) and 100 μg/mL of streptomycin and 100 U/mL penicillin.
(§2) All transfections were performed using RNAiMax (Invitrogen Cat# 13778-150) as per the manufacturer's instructions.
(§3) Both human and murine cell lines were transfected in the similar fashion. Cells were plated in all wells of a tissue-culture treated, 96-well plate at a final count of 5,000 cells/well in […], of appropriate culture media. Cells were cultured for 24 hours after plating at 37° C. in the presence of 5% CO2.
(§4) After 24 hours, complexes containing siNA and RNAiMax were created as follows: A solution of RNAiMax diluted 33-fold in OPTI-MEM was prepared. In parallel, solutions of the siNAs for testing were prepared to a final concentration of 120 nM in OPTI-MEM. After incubation of RNAiMax/OPTI-MEM solution at room temperature for 5 min, an equal volume of the siNA solution and the RNAiMax solution were added together for each of the siNAs.
(§5) This solution was incubated at room temperature for 20 minutes. After incubation, 20 uL of the solution was added to each of the relevant wells.
(§6) The final concentration of siNA in each well was 10 nM and the final volume of RNAiMax in each well was 0.3 ul.
(§7) The time of incubation with the RNAiMax-siNA complexes was 24 hours, unless otherwise indicated. There was no change in media between the transfection and harvesting of the cells unless otherwise indicated.
(§8) RNA was extracted from a 96-well plate using the TaqMan® Gene Expression Cells-to-CT™ Kit (Cat# 4399002) with a modified protocol. Briefly, a 60 uL (1 plate) or 110 uL (2 plates) of the Lysis Solution with DNase I was dispensed into each well of the Lysis Buffer Plate (twin.tec full skirt plate). The lysis buffer and stop plates were stored at 4° C. until the cells were washed.
(§9) The plate was spun at 1100 rpm for 5 minutes. The culture medium was aspirated and discarded from the wells of the culture plate. The lysis was performed automatically using a BioMek FX instrument and method. After the Biomek method was completed, the lysis plate was incubated for 2 min. at room temperature. The lysis plate can be stored for 2 hours at 4° C., or at −20° C. or −80° C. for two months.
(§10) Each well of the reverse transcription plate required 10 uL of 2× reverse transcriptase Buffer, luL of 20× reverse transcription enzyme and 2 uL of nuclease-free water. The reverse transcription master mix was prepared by mixing 2× reverse transcription buffer, 20× reverse transcription enzyme mix, and nuclease-free water. 13 uL of the reverse transcription master mix was dispensed into each well of the reverse transcription plate (semi-skirted). A separate reverse transcription plate was prepared for each cell plate. The plate was loaded onto a Biomek NX or Biomek FX Dual-96 and the Biomek method was run. The program is programmed to automatically added 7 uL of lysate from the cell lysis procedure described above into each well of the reverse transcription plate. The plate is sealed and spun on a centrifuge (1000 rpm for 30 seconds) to settle the contents to the bottom of the reverse transcription plate. The plate is placed in a thermocycler at 37° C. for 60 min, 95° C. for 5 min, and 4° C. until the plate is removed from the thermocycler. Upon removal, if not used immediately, the plate was frozen at −20° C.
A series of probes and primers were used to detect the various mRNA transcripts of the genes of TSLP, IL-8 and GAPDH in human cell lines. All the Taqman probes and primers for the experiments here-in described were supplied as pre-validated sets by Applied Biosystems, Inc. (see Table 2). […]

mTSLP mRNA = assay: Initial screening: mouse TSLP mRNA knock-down by RT-PCR (Taqman) after RNAiMax transfection of NIH 3T3 cells; format: cell-based; conditions: 10 nM siNA, 24 hrs post-transfection, mean ± s.d., summary from 2 screens
Method: as §1
NIH 3T3 (murine; ATCC cat#CRL-1658): Cells were cultured at 37° C. in the presence of 5% CO2 and grown in Dulbecco's modified Eagle's medium (DMEM) with 4 mM L-glutamine adjusted to contain 1.5 g/L sodium bicarbonate and 4.5 g/L glucose and supplemented with fetal bovine serum at a final concentration of 10% and 100 μg/mL of streptomycin and 100 U/mL penicillin.
as §2, §3, §4, §5, §6, §7, §8, §9, §10
A series of probes and primers were used to detect the various mRNA transcripts of the genes of TSLP, IL-8 and GAPDH in human cell lines. […]

Substance | % KD TSLP (TSLP mRNA) | % KD mTSLP NIH3T3 (mTSLP mRNA)
25445-DC: siNA duplex: sense B GGGAuAGAAAAGuAGGuAA TTB (SEQ ID NO: 73), antisense UUAccuAcuuuucuAucccUU (SEQ ID NO: 74) (sense GGGAUAGAAAAGUAGGUAATT; antisense UUACCUACUUUUCUAUCCCUU; sense: DNA at AGT, 2'-fluoro at U, [invAb] at 5' end, 3' end, backbone not given here; antisense: sugars from the 5' end rrrfffmfffffffmffffmm, backbone not given here) | −66 ± 42.7% | 36.1 ± 1.6%
25447-DC: siNA duplex: sense B uuuGuGAAcAcuuuuGAAA TTB (SEQ ID NO: 77), antisense UUUcAAAAGuGuucAcAAAUU (SEQ ID NO: 78) (sense UUUGUGAACACUUUUGAAATT; antisense UUUCAAAAGUGUUCACAAAUU; sense: DNA at AGT, 2'-fluoro at CU, [invAb] at 5' end, 3' end, backbone not given here; antisense: sugars from the 5' end rrrfmmmmmfmfffmfmmmmm, backbone not given here) | 84 ± 4.6% | 18.5 ± 3.8%
25448-DC: siNA duplex: sense B uGuGAAcAcuuuuGAAAAu TTB (SEQ ID NO: 79), antisense AUUuucAAAAGuGuucAcAUU (SEQ ID NO: 80) (sense UGUGAACACUUUUGAAAAUTT; antisense AUUUUCAAAAGUGUUCACAUU; sense: DNA at AGT, 2'-fluoro at CU, [invAb] at 5' end, 3' end, backbone not given here; antisense: sugars from the 5' end rrrfffmmmmmfmfffmfmmm, backbone not given here) | 80 ± 7% | 45.1 ± 6.3%
25451-DC: siNA duplex: sense B uAAuuAcAGAAGAGuuucu TTB (SEQ ID NO: 85), antisense AGAAAcucuucuGuAAuuAUU (SEQ ID NO: 86) (sense UAAUUACAGAAGAGUUUCUTT; antisense AGAAACUCUUCUGUAAUUAUU; sense: DNA at AGT, 2'-fluoro at CU, [invAb] at 5' end, 3' end, backbone not given here; antisense: sugars from the 5' end rrrmmfffffffmfmmffmmm, backbone not given here) | 76 ± 16.4% | −37.4 ± 15.7%
25452-DC: siNA duplex: sense B uuGuGAAcAcuuuuGAAAA TTB (SEQ ID NO: 87), antisense UUUucAAAAGuGuucAcAAUU (SEQ ID NO: 88) (sense UUGUGAACACUUUUGAAAATT; antisense UUUUCAAAAGUGUUCACAAUU; sense: DNA at AGT, 2'-fluoro at CU, [invAb] at 5' end, 3' end, backbone not given here; antisense: sugars from the 5' end rrrffmmmmmfmfffmfmmmm, backbone not given here) | 86 ± 3% | 36.4 ± 7.9%
25453-DC: siNA duplex: sense B AuuAcAGAAGAGuuucuuA TTB (SEQ ID NO: 89), antisense UAAGAAAcucuucuGuAAuUU (SEQ ID NO: 90) (sense AUUACAGAAGAGUUUCUUATT; antisense UAAGAAACUCUUCUGUAAUUU; sense: DNA at AGT, 2'-fluoro at CU, [invAb] at 5' end, 3' end, backbone not given here; antisense: sugars from the 5' end rrrmmmmfffffffmfmmfmm, backbone not given here) | 81 ± 10.5% | −8.6 ± 12.2%
25454-DC: siNA duplex: sense B AAuuuAuuuuGuGAAcAcu TTB (SEQ ID NO: 91), antisense AGUGuucAcAAAAuAAAuuUU (SEQ ID NO: 92) (sense AAUUUAUUUUGUGAACACUTT; antisense AGUGUUCACAAAAUAAAUUUU; sense: DNA at AGT, 2'-fluoro at CU, [invAb] at 5' end, 3' end, backbone not given here; antisense: sugars from the 5' end rrrmfffmfmmmmfmmmffmm, backbone not given here) | 63 ± 16.9% | 30.7 ± 22.5%
25455-DC: siNA duplex: sense B AcAGAAGAGuuucuuAAcu TTB (SEQ ID NO: 93), antisense AGUuAAGAAAcucuucuGuUU (SEQ ID NO: 94) (sense ACAGAAGAGUUUCUUAACUTT; antisense AGUUAAGAAACUCUUCUGUUU; sense: DNA at AGT, 2'-fluoro at CU, [invAb] at 5' end, 3' end, backbone not given here; antisense: sugars from the 5' end rrrfmmmmmmfffffffmfmm, backbone not given here) | 79 ± 11.3% | 4.9 ± 26%
25456-DC: siNA duplex: sense B uccuGAAAAucGAGuAuuA TTB (SEQ ID NO: 95), antisense UAAuAcucGAuuuucAGGAUU (SEQ ID NO: 96) (sense UCCUGAAAAUCGAGUAUUATT; antisense UAAUACUCGAUUUUCAGGAUU; sense: DNA at AGT, 2'-fluoro at CU, [invAb] at 5' end, 3' end, backbone not given here; antisense: sugars from the 5' end rrrfmfffmmfffffmmmmmm, backbone not given here) | 23 ± 1.1% | 53.3 ± 0.3%
25457-DC: siNA duplex: sense B cucAGGAAAuGGcAcAAGA TTB (SEQ ID NO: 97), antisense UCUuGuGccAuuuccuGAGUU (SEQ ID NO: 98) (sense CUCAGGAAAUGGCACAAGATT; antisense UCUUGUGCCAUUUCCUGAGUU; sense: DNA at AGT, 2'-fluoro at CU, [invAb] at 5' end, 3' end, backbone not given here; antisense: sugars from the 5' end rrrfmfmffmffffffmmmmm, backbone not given here) | 32 ± 2% | 81.5 ± 3.7%
25458-DC: siNA duplex: sense B GuAGAAAAAAAAAuuAAAA TTB (SEQ ID NO: 99), antisense UUUuAAuuuuuuuuucuAcUU (SEQ ID NO: 100) (sense GUAGAAAAAAAAAUUAAAATT; antisense UUUUAAUUUUUUUUUCUACUU; sense: sugars from the 5' end d1 f1 d11 f2 d6, [invAb] at 5' end, 3' end, backbone not given here; antisense: sugars from the 5' end rrrfmmfffffffffffmfmm, backbone not given here) | 45 ± 9.9% | 21.6 ± 0.5%
